# Counter-ions that a name gives are not always drawn.
# Target: T1, human CGT (ceramide galactosyltransferase), CHO/CGT lysate (Homo sapiens, UniProt Q16880)
# T1 construct: Full-length human CGT cDNA was cloned into the BamH1/Xho1 site of pcDNA3.1 (+); expressed in transfected cells; host or cells: Chinese hamster ovary (CHO) cells; lysate prepared with M-PER
# T1 sequence (Q16880 21-541): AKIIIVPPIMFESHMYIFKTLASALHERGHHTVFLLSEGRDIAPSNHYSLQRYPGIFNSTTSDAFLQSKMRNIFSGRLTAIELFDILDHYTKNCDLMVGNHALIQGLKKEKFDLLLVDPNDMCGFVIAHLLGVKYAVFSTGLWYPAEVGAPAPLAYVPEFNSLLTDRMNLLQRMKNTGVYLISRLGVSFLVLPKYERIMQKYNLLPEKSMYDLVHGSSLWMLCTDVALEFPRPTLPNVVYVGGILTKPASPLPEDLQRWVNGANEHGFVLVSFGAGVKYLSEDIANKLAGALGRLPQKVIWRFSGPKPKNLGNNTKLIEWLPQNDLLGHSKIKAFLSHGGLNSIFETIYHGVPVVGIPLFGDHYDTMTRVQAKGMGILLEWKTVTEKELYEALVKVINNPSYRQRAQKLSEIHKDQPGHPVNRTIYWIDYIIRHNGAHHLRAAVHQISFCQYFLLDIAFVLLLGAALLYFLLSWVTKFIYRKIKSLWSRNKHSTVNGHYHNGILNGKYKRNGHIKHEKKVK
# Experiment: CGT enzyme assay, LC-MS/MS readout (Table 1 ranges without asterisk)
# Format: biochemical
# Conditions: LC-MS/MS method (range without asterisk)
# Procedure: Full-length human CGT cDNA was cloned into the BamH1/Xho1 site of pcDNA3.1 (+) mammalian expression vector (V90-20, Invitrogen, Carlsbad, Calif.) and the plasmid was transfected into Chinese hamster ovary (CHO) cells. Lysate was prepared using M-PER (Mammalian Protein Extraction Reagent, ThermoFisher Scientific, Grand Island, N.Y.) in the presence of a protease inhibitor cocktail (P8340, Sigma, Saint Louis, Mo.). Each 100 mm dish (100% confluent, approximately 1×10^7 cells) was lysed with 250 μL of M-PER containing protease inhibitors. Protein concentration was determined using a Pierce BCA protein assay kit (ThermoFisher Scientific). Four micrograms of CHO/CGT lysate was incubated with various concentrations of a compound (0.001 μM-50 μM) in 10 mM HEPES (pH 7.2) containing 35 μM dioleoylphosphatidylcholine, 5 mM MgCl2, 5 mM MnCl2, 1% BSA, 15 mM KCl, 1 mM EGTA, 8 mM CHAPS, 10 μM C6-NBD-dihydro-ceramide and 17.5 μM UDP-galactose in a final reaction volume of 20 μL at 37° C. for 1 hour. The final concentration of DMSO was 0.5% in both compound-treated and mock-treated samples. Tween 80 (0.01%) was optionally added to the reaction mixture to help solubilize the compounds. Each individual reaction was diluted with 80 μL of methanol:acetronitrile (1:3) containing 5 μM N-docdecanoyl-NBD-galactosylceramide (internal standard) to stop the reaction. 200 μL H2O:acetonitile (1:1) was added to precipitate the protein. After sufficient mixing, the plates were centrifuged at 2469 g for 38 minutes, 200 μL of supernatant was transferred to a LC/MS 96-deep well plate and a second spin was performed at 2469 g for 10 minutes. The final supernatant was injected in triplicate for RapidFire/MS/MS analysis.
# An alternative LC-MS/MS based method was also used. For the LC-MS/MS readout, the CGT assay was identical to the one described above except for the following: […] was used as the CGT enzyme source, C12:0 (2R—OH) ceramide was used as the ceramide substrate and 0.3 μM Cl2 ceramide was used as the internal standard. Tween 80 was not present in the reaction mixture. The final supernatant was injected for LC-MS/MS analysis.
# Quantitative analysis using the LC-MS/MS method: The quantitative analysis of C12:0 (2R—OH) ceramide and C12:0 (2R—OH) galactosylceramide by LC-MS/MS was performed on a Shimadzu ultra-fast liquid chromatography (Shimadzu, Japan) coupled with API 4000 mass spectrometer (Applied Biosystems, Concord, Ontario, Canada). Analyst 1.5 software packages (Applied Biosystems) were used to control the LC-MS/MS system, as well as for data acquisition and processing. 10 μL of sample was loaded onto a Luna C18 column (50 mm×2.0 mm, I.D. 3 μm, 100A) (Phenomenex, USA) for chromatographic separation. Mobile phase A consisted of HPLC grade water with 0.1% formic acid (v/v) and mobile phase B consisted of acetonitrile supplemented with 0.1% formic acid (v/v). The separation was achieved using the following gradient program at a flow rate of 0.8 mL/min: the initial mobile phase was 70% B, which was increased in a linear fashion to 95% B in 1.50 min, and then maintained at 95% B until 3.50 min. The mobile phase was then reset to 70% B within 0.01 min, and maintained until 4.50 min. The total run time was 4.50 min. The MS/MS detection was performed in ESI positive mode. The mass transition selected for quantification was m/z 498.5-264.3 for C12:0 (2R—OH) ceramide under the collision energy of 38.8 V, and the mass transition of C12:0 (2R—OH) galactosylceramide was m/z 660.6-264.5 under the collision energy of 51 V. The mass transition of Cl2 ceramide which was used as internal standard was m/z 482.4-264.3 under the collision energy of 33V. Compound IC50 values were calculated using a protocol identical to the one described for the RapidFire method (see Table 1, where data ranges without an asterix correspond to analysis using the LC-MS/MS method).
# Using the above CGT enzyme and CGT cellular assays, the compounds of Table 1 were tested. […]
row,Compound,IC50
1,"CC(C)Oc1ccc2cc(C(=O)C(=O)N[C@H](C(=O)N3C4CCC3CC(N)C4)C(F)(F)c3ccc(Br)cc3)ccc2c1 (stereo partly drawn) [Compound 9-1, N-((2R)-3-(3-amino-8-azabicyclo[3.2.1]octan-8-yl)-1-(4-bromophenyl)-1,1-difluoro-3-oxopropan-2-yl)-2-(6-isopropoxynaphthalen-2-yl)-2-oxoacetamide trifluoroacetate]",10 to 30 µM
2,"CC(C)Oc1ccc2cc(C(=O)C(=O)N[C@@H](C(=O)N3C4CCC3CC(N)C4)C(F)(F)c3ccc(Br)cc3)ccc2c1 (stereo partly drawn) [Compound 9-2, N-((2S)-3-(3-amino-8-azabicyclo[3.2.1]octan-8-yl)-1-(4-bromophenyl)-1,1-difluoro-3-oxopropan-2-yl)-2-(6-isopropoxynaphthalen-2-yl)-2-oxoacetamide trifluoroacetate]",30 to 100 µM
3,"NC1CC2CCC(C1)N2C(=O)[C@@H](NS(=O)(=O)c1ccc2cc(Oc3ccccn3)ccc2c1)C(F)(F)c1ccc(Br)cc1 (stereo partly drawn) [Compound 10-1, N-((2R)-3-(3-amino-8-azabicyclo[3.2.1]octan-8-yl)-1-(4-bromophenyl)-1,1-difluoro-3-oxopropan-2-yl)-6-(pyridin-2-yloxy)naphthalene-2-sulfonamide trifluoroacetate]",30 to 100 µM
4,"NC1CC2CCC(C1)N2C(=O)[C@@H](NS(=O)(=O)c1ccc(OCc2ccccc2)cc1)C(F)(F)c1ccc(Br)cc1 (stereo partly drawn) [Compound 11-1, N-((2R)-3-(3-amino-8-azabicyclo[3.2.1]octan-8-yl)-1-(4-bromophenyl)-1,1-difluoro-3-oxopropan-2-yl)-4-(benzyloxy)benzenesulfonamide trifluoroacetate]",10 to 30 µM
5,"NC1CC2CCC(C1)N2C(=O)[C@H](NS(=O)(=O)c1ccc(OCc2ccccc2)cc1)C(F)(F)c1ccc(Br)cc1 (stereo partly drawn) [Compound 11-2, N-((2S)-3-(3-amino-8-azabicyclo[3.2.1]octan-8-yl)-1-(4-bromophenyl)-1,1-difluoro-3-oxopropan-2-yl)-4-(benzyloxy)benzenesulfonamide trifluoroacetate]",30 to 100 µM
6,"NC1CC2CCC(C1)N2C(=O)[C@@H](NS(=O)(=O)c1ccc(OCC2CCCCC2)cc1)C(F)(F)c1ccc(Br)cc1 (stereo partly drawn) [Compound 12-1, N-((2R)-3-(3-amino-8-azabicyclo[3.2.1]octan-8-yl)-1-(4-bromophenyl)-1,1-difluoro-3-oxopropan-2-yl)-4-(cyclohexylmethoxy)benzenesulfonamide trifluoroacetate]",10 to 30 µM
7,"CC[C@@H](C)Oc1ccc2cc(S(=O)(=O)N[C@H](C(=O)N3C4CCC3CC(N)C4)C(F)(F)c3ccc(Br)cc3)ccc2c1 (stereo partly drawn) [Compound 13-1, N-((2R)-3-(3-amino-8-azabicyclo[3.2.1]octan-8-yl)-1-(4-bromophenyl)-1,1-difluoro-3-oxopropan-2-yl)-6-((R)-sec-butoxy)naphthalene-2-sulfonamide]",1 to 10 µM
8,"CC[C@H](C)Oc1ccc2cc(S(=O)(=O)N[C@@H](C(=O)N3C4CCC3CC(N)C4)C(F)(F)c3ccc(Br)cc3)ccc2c1 (stereo partly drawn) [Compound 13-2, N-((2S)-3-(3-amino-8-azabicyclo[3.2.1]octan-8-yl)-1-(4-bromophenyl)-1,1-difluoro-3-oxopropan-2-yl)-6-((S)-sec-butoxy)naphthalene-2-sulfonamide]",10 to 30 µM
9,"CC[C@H](C)Oc1ccc2cc(S(=O)(=O)N[C@H](C(=O)N3C4CCC3CC(N)C4)C(F)(F)c3ccc(Br)cc3)ccc2c1 (stereo partly drawn) [Compound 13-3, N-((2R)-3-(3-amino-8-azabicyclo[3.2.1]octan-8-yl)-1-(4-bromophenyl)-1,1-difluoro-3-oxopropan-2-yl)-6-((S)-sec-butoxy)naphthalene-2-sulfonamide]",1 to 10 µM
10,"CC[C@@H](C)Oc1ccc2cc(S(=O)(=O)N[C@@H](C(=O)N3C4CCC3CC(N)C4)C(F)(F)c3ccc(Br)cc3)ccc2c1 (stereo partly drawn) [Compound 13-4, N-((2S)-3-(3-amino-8-azabicyclo[3.2.1]octan-8-yl)-1-(4-bromophenyl)-1,1-difluoro-3-oxopropan-2-yl)-6-((R)-sec-butoxy)naphthalene-2-sulfonamide]",10 to 30 µM
11,"NC1CC2CCC(C1)N2C(=O)C(NC(=O)C(=O)c1ccc(-c2ccc(F)cc2)cn1)C(F)(F)c1ccc(Br)cc1 (stereo not shown) [Compound 14, N-(3-(3-amino-8-azabicyclo[3.2.1]octan-8-yl)-1-(4-bromophenyl)-1,1l-difluoro-3-oxopropan-2-yl)-2-(5-(4-fluorophenyl)pyridin-2-yl)-2-oxoacetamide trifluoroacetate]",30 to 100 µM
12,"NC1CC2CCC(C1)N2C(=O)[C@@H](NS(=O)(=O)c1ccc(OCc2ccc(Cl)cc2)cc1)C(F)(F)c1ccc(Br)cc1 (stereo partly drawn) [Compound 15-1, N-((2R)-3-(3-amino-8-azabicyclo[3.2.1]octan-8-yl)-1-(4-bromophenyl)-1,1-difluoro-3-oxopropan-2-yl)-4-((4-chlorobenzyl)oxy)benzenesulfonamide trifluoroacetate]",1 to 10 µM
13,"NC1CC2CCC(C1)N2C(=O)[C@H](NS(=O)(=O)c1ccc(OCc2ccc(Cl)cc2)cc1)C(F)(F)c1ccc(Br)cc1 (stereo partly drawn) [Compound 15-2, N-((2S)-3-(3-amino-8-azabicyclo[3.2.1]octan-8-yl)-1-(4-bromophenyl)-1,1-difluoro-3-oxopropan-2-yl)-4-((4-chlorobenzyl)oxy) benzenesulfonamide trifluoroacetate]",30 to 100 µM
14,"CC(C)c1ccc2cc(S(=O)(=O)N[C@H](C(=O)N3C4CCC3CC(N)C4)C(F)(F)c3ccc(Br)cc3)ccc2c1 (stereo partly drawn) [Compound 16-1, N-((2R)-3-(3-amino-8-azabicyclo[3.2.1]octan-8-yl)-1-(4-bromophenyl)-1,1-difluoro-3-oxopropan-2-yl)-6-isopropylnaphthalene-2-sulfonamide trifluoroacetate]",1 to 10 µM
15,"CC(C)c1ccc2cc(S(=O)(=O)N[C@@H](C(=O)N3C4CCC3CC(N)C4)C(F)(F)c3ccc(Br)cc3)ccc2c1 (stereo partly drawn) [Compound 16-2, N-((2S)-3-(3-amino-8-azabicyclo[3.2.1]octan-8-yl)-1-(4-bromophenyl)-1,1-difluoro-3-oxopropan-2-yl)-6-isopropylnaphthalene-2-sulfonamide trifluoroacetate]",30 to 100 µM
16,"NC1CC2CCC(C1)N2C(=O)[C@@H](NS(=O)(=O)c1cccc(OCc2ccc(F)cc2)c1)C(F)(F)c1ccc(Br)cc1 (stereo partly drawn) [Compound 17-1, N-((2R)-3-(3-amino-8-azabicyclo[3.2.1]octan-8-yl)-1-(4-bromophenyl)-1,1-difluoro-3-oxopropan-2-yl)-3-((4-fluorobenzyl)oxy)benzenesulfonamide trifluoroacetate]",30 to 100 µM

# Reference: patent publication US20190322676A1, “CERAMIDE GALACTOSYLTRANSFERASE INHIBITORS FOR THE TREATMENT OF DISEASE” (BioMarin Pharmaceutical Inc., priority 2016, published 2019)
